Assays:
[1] = Cell viability, PrestoBlue Assay; assay type: cell-based, human; settings: human; read-out: Cell viability, % of the background corrected DMSO control value
Description: The effect of the peptides on cell viability can be assessed in cultured cells using suitable assay of viability such as the PrestoBlue® assay (Thermo Fisher Scientific, Waltham, Mass.). Peptides were initially prepared as 10 mM stock in DMSO and tested at a final concentration of 10 μM (0.1% DMSO). […] PrestoBlue Assay Reagent was purchased from Thermo Fisher Scientific. A172 human brain glioblastoma cell line was purchased from American Type Culture Collection (Manassas, Va.). A172 cells were grown in DMEM supplemented with 10% FBS with 100 IU/ml penicillin and 100 μg/ml streptomycin. Cultures were maintained at 37° C. in a humidified atmosphere of 5% CO2/95% air. A172 cells were seeded at 8,000 cells per well on 96-well plates. […] Cell viability was determined using a PrestoBlue Assay reagent […] according to the manufacturer's instructions. Absorption for each sample well on the plate was measured using a Cytation 3 plate reader at 560 nm and 590 nm (BioTek, Winooski, Vt.). Activity was calculated relative to 0.1% DMSO untreated control. Treatment with 0.1% DMSO alone was used as the cell viability activity control. The relative standard deviation of the DMSO control was <5%.

[2] = system: SH-SY5Y Neuroblastoma Cells; experiment: ATP levels (CellTiter-Glo); assay type: cell-based, human; settings: staurosporine 1 μM
Description: The effect of the peptides on cellular metabolism can be assessed using an assay of ATP levels in cultured cells such as human neuroblastoma cells. Peptides were initially prepared as 10 mM stock in DMSO and used at a final concentration of 10 μM (0.1% DMSO). […] CellTiter-Glo® Assay kit was purchased from Promega. SH-SY5Y human bone marrow neuroblastoma cell line was purchased from American Type Culture Collection (Manassas, Va.) and licensed from Memorial Sloan-Kettering Cancer Center (New York, N.Y.). SH-SY5Y cells were grown in DMEM/F12 medium supplemented with 10% FBS with 100 IU/ml penicillin and 100 μg/ml streptomycin. Cultures were maintained at 37° C. in a humidified atmosphere of 5% CO2/95% air. SH-SY5Y cells were seeded at 30,000 cells per well on 96-well plates. […] ATP levels were determined using a CellTiter-Glo Assay kit (Promega) according to the manufacturer's instructions. Luminescence for each sample well on the plate was measured using a Cytation 3 plate reader (BioTek, Winooski, Vt.). Activity was calculated relative to 0.1% DMSO treated control. The relative standard deviation of the result for the 0.1% DMSO treated control was <5%.

Question: Which viability at 1 µM [1] does the source give for `CN[C@@H]1C[C@H]2O[C@@](C)([C@@H]1OC)n1c3ccccc3c3c4c(c5c6ccccc6n2c5c31)C(=O)NC4` [staurosporine, Staurosporine, reference compound] here?
Answer: < 75%

Question: And the “ATP levels, % of the 0.1% DMSO treated control value” [2]?
Answer: < 5%
